In PubChem BioAssay (NCI) one finds TGI and GI50 data, which are given here for twelve molecules.

Assay in all cases: growth of human tumour cells (NCI), 48 h
In assay [1] the test system is A549 NSCLC.
Assay [2] concerns DU-145 prostate.
The subject of assay [3] is HOP-62 NSCLC.
Assay [4] has as its system IGROV1 ovarian.
For assay [5], the system named is KM12 colon.
Assay [6] concerns NCI-H522 lung.
Assay [7] has as its system SF-268 CNS.
Assay [8] has as its system SK-MEL-5 melanoma.
Assay [9] deals with SNB-19 CNS.
Assay [10] concerns UACC-257 melanoma.

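In this assay, cells in 96-well plates receive the compound at five concentrations for 48 hours. Endpoints are linearly interpolated between the surrounding concentrations. GI50: concentration for 50% inhibition of growth. Definition used: TGI = concentration required for complete inhibition of growth.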 Bounds are passed on as bounds.

Take `CCn1c(-c2ccc(OC(C)=O)cc2)c(C)c2cc(OC(C)=O)ccc21`: the TGI is 67.9 µM in assay [1]; 43.3 µM in [2]; 47.7 µM in assay [3]; greater than 100 µM in assay [4]; 36.8 µM in assay [5]; 40 µM in assay [6]. Also, the TGI in assay [7] is 58.5 µM; in assay [8], 27.1 µM; in assay [9] it was greater than 100 µM; in [10] it was 94.9 µM.

For `O=C(/C=C\c1ccc(NCc2ccc(C(=O)O)cc2)cc1)CCl`, the GI50 is 17.2 µM in assay [1]; 17.3 µM in assay [2]; 15.5 µM in assay [3]; 16.7 µM in assay [4]; 17 µM in assay [5]; 1.65 µM in assay [6]. Also, the GI50 in [7] was 10.6 µM; in assay [8] it was 17.2 µM; in assay [9] it was 15.3 µM; in assay [10], 11.4 µM. Further, the TGI turned out to be 33 µM in [1]; 31.9 µM in assay [2]; 29.6 µM in assay [3]; 37.2 µM in assay [4]; 32 µM in [5]; 3.24 µM in assay [6]. Further, the TGI turned out to be 24.7 µM in [7], 34.5 µM in assay [8], 29.1 µM in assay [9] and 23.8 µM in assay [10].

For `CC1=CC(C/C(C)=C/COc2ccc3ccc(=O)oc3c2)OC1=O` (stereo not given), the TGI in assay [1], in [2], in [3], in [4], in assay [5] and in [6] was greater than 100 µM each time. Further, the TGI in [7], in assay [8], in [9] and in assay [10] was greater than 100 µM throughout.

Take `CC(C)C[C@H](NC(=O)/C=C/Cn1ccc2ccccc2c1=O)B(O)O`: the GI50 in assay [1] is 5.35 µM; in assay [2], 8.78 µM; in assay [3], 4.9 µM; in assay [4], 10.8 µM; in [5], 4.54 µM; in assay [6], 2.52 µM. Also, the GI50 in assay [7] is 4.98 µM; in assay [8], 2.36 µM; in assay [9], 6.49 µM; in assay [10], 2.12 µM. Moreover, the TGI in [1] is greater than 100 µM; in assay [2] it was greater than 100 µM; in assay [3], 25.9 µM; in assay [4] it was greater than 100 µM; in assay [5] it was 19 µM; in [6], 6.39 µM. Further, the TGI is 51.5 µM in assay [7], 6.16 µM in [8], greater than 100 µM in assay [9] and 7.02 µM in assay [10].

Consider `Cc1ccc2[nH]c(O)c(N=Nc3ccc(S(N)(=O)=O)cc3)c2c1`, for which the GI50 in assay [1] was 9.66 µM; in assay [2], 9.46 µM; in assay [3] it was 11.5 µM; in assay [4] it was greater than 16.1 µM; in [5], 4.17 µM; in assay [6] it was 8.94 µM. The GI50 in assay [7] is 11.8 µM; in assay [8], 11 µM; in assay [9], greater than 19.1 µM; in assay [10] it was greater than 25 µM. The TGI in assay [1], in [2], in assay [3], in [4], in assay [5] and in assay [6] was greater than 25 µM throughout. The TGI in [7], in assay [8], in assay [9] and in assay [10] was greater than 25 µM in each case.

`CC(C)(C[C@H]1CN(S(=O)(=O)c2cccc(C(F)(F)F)c2)c2cc(-c3cc(F)cc(OC(F)F)c3)ccc2O1)C(=O)O`: the GI50 is 4.85 µM in assay [1]; 12.4 µM in assay [2]; 6.65 µM in assay [3]; 9.43 µM in assay [4]; 4.38 µM in assay [5]; 2.5 µM in assay [6]. Moreover, the GI50 was 10.3 µM in [7], 3.56 µM in assay [8], 5.92 µM in assay [9] and 11.5 µM in [10]. In addition, the TGI was found to be 17.9 µM in assay [1]; 25.3 µM in [2]; 23.8 µM in [3]; 27.6 µM in [4]; 16.4 µM in assay [5]; 10.7 µM in assay [6]. Besides, the TGI in assay [7] stood at 24.7 µM; in [8], 14.9 µM; in assay [9], 20.7 µM; in [10], 27.3 µM.

In the case of `Nc1ccn(C2CCC(CO)O2)c(=O)n1` (stereo not given), the GI50 in assay [1], in assay [3], in [4], in assay [5], in [7] and in assay [8] was greater than 1000 µM each time. In addition, the GI50 in assay [9] and in assay [10] was greater than 1000 µM throughout. Moreover, the TGI in assay [1], in [2], in assay [3], in assay [4], in assay [5] and in assay [6] was greater than 1000 µM in each case. For the same molecule, the TGI in assay [7], in assay [8], in assay [9] and in [10] was greater than 1000 µM throughout.

For `CC1(C)[C@@H](OC(N)=O)[C@H]2O[C@H]2[C@]2(C=O)[C@H]3CC[C@]4(C)[C@@H](c5ccc(=O)oc5)[C@@H](Cl)C[C@]4(O)C3=CC[C@@H]12`, the GI50 in assay [1] was 0.00442 µM; in [2], 0.00437 µM; in [3], 0.00399 µM; in assay [4] it was 0.00836 µM; in assay [5] it was 0.00806 µM; in [6], 0.0035 µM. In addition, the GI50 is 0.0037 µM in assay [7], 0.00459 µM in assay [8], 0.00796 µM in [9] and 0.0059 µM in [10]. For the same molecule, the TGI in assay [1] was found to be 0.00858 µM; in [2], 0.00798 µM; in assay [3], 0.00785 µM; in assay [4] it was 0.0362 µM; in assay [5] it was 0.0253 µM; in [6], 0.0104 µM. For the same molecule, the TGI in assay [7] was 0.00749 µM; in [8] it was 0.00887 µM; in assay [9], 0.0219 µM; in assay [10] it was 0.0164 µM.

As to `C=C1CCC(CC[C@@H]2CC[C@]3(OC2)O[C@@]2(O)CC[C@]3(C)OC2(C)C)C(C)(C)[C@H]1C/C=C1/C(=O)OC[C@@H]1O` (stereo not given in full), the TGI was determined as 19.4 µM in assay [1]; 14.8 µM in [2]; 19.9 µM in assay [3]; 11.6 µM in assay [4]; 6.35 µM in [5]; 3.5 µM in assay [6]. Moreover, the TGI stood at 8.89 µM in [7], 1.72 µM in [8], 8.88 µM in [9] and 4.84 µM in assay [10].

In the case of `Cc1[nH]c2ccccc2c(=O)c1CC=C(Cl)Cl`, the GI50 in [1] was 49.4 µM; in [2] it was 88.2 µM; in [3], 24.1 µM; in [4], 64.2 µM; in assay [5], greater than 100 µM; in assay [6], 24.6 µM. Further, the GI50 in assay [7] was 31.2 µM; in [8], 27.5 µM; in assay [9] it was 25.7 µM; in assay [10], 57 µM. For the same molecule, the TGI was greater than 100 µM in assay [1]; greater than 100 µM in [2]; 64.5 µM in assay [3]; greater than 100 µM in assay [4]; greater than 100 µM in assay [5]; greater than 100 µM in assay [6]. In addition, the TGI in assay [7], in assay [8], in [9] and in assay [10] was greater than 100 µM in each case.

On to `O=c1c2ccccc2c(=O)c2c1[nH]c1c(-c3ccccc3)c(-c3ccccc3)c(=O)c12`, for which the GI50 in assay [1] was 2.07 µM; in [2] it was 2.71 µM; in [3] it was 3.28 µM; in assay [4], 3.39 µM; in assay [5] it was 2.3 µM; in [6], 2.19 µM. The GI50 in assay [7] is 4.48 µM; in assay [8], 2.05 µM; in assay [9] it was 3.26 µM; in assay [10], 2.46 µM. The TGI came to 6.6 µM in [1]; 9.44 µM in assay [2]; 9.15 µM in assay [3]; 20.4 µM in [4]; 6.34 µM in assay [5]; 5.73 µM in [6]. Also, the TGI is greater than 100 µM in assay [7], 4.03 µM in assay [8], 11.8 µM in assay [9] and 8.22 µM in assay [10].

On to `COc1cc(C(=O)c2cc(C)c3[nH]c4ccc(C)cc4c3c2C)cc(OC)c1OC`, for which the GI50 in assay [1], in [2], in assay [3], in assay [4], in assay [5] and in assay [6] was less than 0.01 µM throughout. Moreover, the GI50 in [7] was less than 0.0186 µM; in assay [8], less than 0.01 µM; in assay [9] it was less than 0.01 µM; in [10] it was 4.5 µM. Also, the TGI is greater than 100 µM in assay [1]; greater than 100 µM in assay [3]; greater than 21.6 µM in [5]; greater than 100 µM in assay [7]; less than 0.0146 µM in [8]; greater than 100 µM in assay [9]. The TGI in assay [10] was greater than 100 µM.
